Test results from paper PMC8615111, “Phenolic Thiazoles with Antioxidant and Antiradical Activity. Synthesis, In Vitro Evaluation, Toxicity, Electrochemical Behavior, Quantum Studies and Antimicrobial Screening” (Antioxidants, 2021).

Key:
[1] = Cyclic voltammetry of the compounds on graphite-based SPE; assay type: physicochemical; conditions: CV, 0.1 M HClO4, graphite-based SPE
Protocol: The evaluated compounds’ stock solutions used were prepared at a concentration of 5 mM. To test their redox properties, dilutions of 0.5 mM and 2 mM were prepared in 0.1 M HClO4 electrolyte (pH = 1.2). Screen-printed electrodes (SPEs; Metrohm DropSens, Oviedo, Spain) (planar electrodes) with graphite and gold working electrodes were used. Cyclic voltammetry (CV) and differential pulse voltammetry (DPV) were the electrochemical methods applied. The experimental conditions for each test are mentioned near the corresponding data (Appendix A).
In Figure 2, the cyclic voltammograms (CVs) for each of the compounds considered in this study, compared individually with the voltammogram obtained in the electrolyte (0.1 M HClO4), are presented. Thus, the oxidation/reduction peaks corresponding to the electrochemical transformations suffered by each compound can be observed in the potential range considered, in an acidic environment (low pH). From Figure 3, where the voltammograms of all eight compounds were presented together, a similarity is observed between 8a and 8b, and among the other compounds, whereas 5a and 5b can be noted as having the highest oxidation signals.

[2] = DPPH˙ radical scavenging by cyclic voltammetry
Protocol: The antioxidant properties were evaluated in terms of their activity against some free radicals, and other compounds reported in the literature, relevant for this purpose, such as: • ferric ions (Fe^3+)—used to test the reduction of the antioxidant character of the compounds; • DPPH˙ free radical– used to test the scavenging effect of the compounds on this radical; • hydrogen peroxide (H2O2)—used to test the scavenging effect of the synthesized molecules on this compound; • 2,2,6,6-tetramethylpiperidinyl-1-oxy (TEMPO)—used to test the scavenging effect of the synthesized molecules on this compound.
The radical scavenging properties of the novel compounds and the other antioxidants were determined using a stock DPPH˙ radical solution prepared in absolute ethanol. The antioxidant samples were mixed with DPPH˙ solution and HClO4 electrolyte and incubated in the dark for 30 min. The remaining redox activity of DPPH was measured by cycling the potential between −0.7 V and 1.2 V, with a scan rate of 0.1 V/s.
The nitrogen-centered 2-2-diphenyl-1-picrylhydrazyl radical (DPPH˙) based assay is one of the most commonly employed method to evaluate the ability of a compound to scavenge or neutralize free radicals based on the reduction of the radical.
Taking into account the redox activity of DPPH˙, its diminution by an antioxidant can also be followed by CV, which is expected to show changes in the voltammetric peaks. Figure A5 reports the electrochemical study of initial electrooxidation of DPPH˙ and the novel compounds compared to remaining peaks after their incubation for 30 min. The decrease of all the peaks after mixture incubation indicates the partial consumption of DPPH˙.

Fe^2+ chelation assay = assay type: biochemical
Protocol: The protocol used for assessing Fe^2+ chelating capacity of the compounds was adapted from a report of Benzie and Strain and previously reported by our group. The iron(II) chelation ability of compounds was calculated using Equation (7):(7) iron chelation (%)=control absorbance−sample absorbance/control absorbance×100
The chelating potential for the ferrous ions of the new compounds was determined, based on their competition for Fe^2+ with ferrozine.

[3] = DPPH˙ radical scavenging assay; assay type: biochemical; conditions: for IC50: DPPH˙ scavenging
Protocol: The 2,2-diphenyl-1-picrylhydrazyl (DPPH˙) radical scavenging assay is based on the transfer of one hydrogen from the analyzed compound to the violet radical DPPH˙. This will convert it to a yellow compound, the change in absorbance being proportional to the amount of DPPH˙ neutralized, according to Brand-Williams et al..
The preparation of the DPPH˙ reagent was previously reported by our group. […] Over the previous quantities, DMSO was added until a total volume of 50 µL was obtained in all cuvettes, and 1950 µL of DPPH˙ solution was added to all cuvettes; then, they were shaken for well over 10 min in the dark at room temperature. The absorbances of the solutions were measured at λ = 517 nm. The DPPH˙ radical scavenging activity of evaluated compounds was calculated using Equation (2):(2) DPPH scavenging (%)=control absorbance−sample absorbance/control absorbance×100

[4] = NO˙ radical scavenging assay (Griess reaction); assay type: biochemical; conditions: 100 µL of test solution 1 mg/mL in DMSO, 150 min, pH 7.4
Protocol: Scavenging of the NO˙ radical was performed according to some adapted protocols reported in the literature, based on the nitroprusside decomposition at physiological pH and colorimetric quantification of the resulted products using the Griess reaction.
Over 200 µL of 10 mM sodium nitroprusside, 100 µL of test solutions (1 mg/mL in DMSO), and 400 µL phosphate-buffered saline (PBS, pH = 7.4) were added. The mixture was then incubated at room temperature for 150 min on a rotating shaker (GFL Gesellschaft für Labortechnik, Burgwedel, Germany). After that, 1 mL of sulfanilic acid 0.33% in 20% acetic acid was added and after 5 min, 1 mL of naphthylethylenediamine […] 0.1% was added to all test tubes. After 30 min, the absorbance of the sample, given by the chromophore (azo dye) formed during the diazotization of nitrite ions resulting from decomposition of sodium nitroprusside with sulfanilic acid and coupled with naphthylethylenediamine, was measured at 546 nm. The NO˙ radical scavenging activity of the tested compounds was calculated using Equation (3):(3) NO˙ scavenging (%)=control absorbance−sample absorbance/control absorbance×100

[5] = compound + DPPH, 30 min, 2nd Eox
[6] = compound alone 0.5 mM in 0.1 M HClO4, 1st Eox column
[7] = compound alone 0.5 mM in 0.1 M HClO4, 1st Iox column
[8] = compound alone, 2nd Ered column

Compound: Br.C/C(=N\Nc1nc(-c2ccccc2)cs1)c1ccc(O)cc1O [Compound 6a, (E)-2-(1-(2,4-dihydroxyphenyl)ethylidene)-1-(4-phenylthiazol-2-yl)hydrazin-1-ium bromide]
- Eox (V) ([1]; 1st oxidation peak): 0.298 V
- Iox (μA) ([1]; 1st oxidation peak): 10.73 μA
- Eox (V) ([1]; 2nd oxidation peak): 0.418 V
- Iox (μA) ([1]; 2nd oxidation peak): 22.48 μA
- Ered (V) ([1]; 2nd reduction peak): 0.181 V
- Ired (μA) ([1]; 2nd reduction peak): −6.84 μA
- Eox (V) ([1]; 3rd oxidation peak): 0.621 V
- Iox (μA) ([1]; 3rd oxidation peak): 15.03 μA
- Ered (V) ([1]; 3rd reduction peak): 0.379 V
- Ired (μA) ([1]; 3rd reduction peak): −1.19 μA
- Iox (μA) ([2]; compound + DPPH, 30 min): 18.21 μA
- Eox (V) [2, 5]: 0.379 V
- Eox (V) [2, 6]: 0.232 V
- Iox (μA) [2, 7]: 4.99 μA
- Ered (V) [2, 8]: 0.193 V
- Ired (μA) ([2]; compound alone, 2nd Ired): −4.16 μA
- Eox (V) ([2]; compound alone, 3rd Eox column): 0.565 V
- Iox (μA) ([2]; compound alone, 3rd Iox column): 4.37 μA
- Chelation Capacity (%), ferrous ions (Fe^2+ chelation assay; 50 µg/mL): 0.07%
- Chelation Capacity (%), ferrous ions (Fe^2+ chelation assay; 100 µg/mL): 7.14%
- Chelation Capacity (%), ferrous ions (Fe^2+ chelation assay; 150 µg/mL): 14.50%
- Chelation Capacity (%), ferrous ions (Fe^2+ chelation assay; 200 µg/mL): 25.03%
- % of DPPH˙ Scavenged ([3]; 1 µg/mL): 5.90%
- % of DPPH˙ Scavenged ([3]; 1.5 µg/mL): 9.07%
- % of DPPH˙ Scavenged ([3]; 2 µg/mL): 12.87%
- % of DPPH˙ Scavenged ([3]; 3 µg/mL): 19.88%
- % of DPPH˙ Scavenged ([3]; 5 µg/mL): 38.13%
- IC50 [3]: 6.56 µg/mL
- % of NO˙ Scavenged [4]: 20.58%

Compound: Br.Oc1ccc(/C=N/Nc2nc(-c3ccccc3)cs2)c(O)c1 [Compound 6b, (E)-2-(2,4-dihydroxybenzylidene)-1-(4-phenylthiazol-2-yl)hydrazin-1-ium bromide]
- Eox (V) ([1]; 1st oxidation peak): 0.296 V
- Iox (μA) ([1]; 1st oxidation peak): 5.28 μA
- Ered (V) ([1]; 1st reduction peak): −0.08 V
- Ired (μA) ([1]; 1st reduction peak): −2.22 μA
- Eox (V) ([1]; 2nd oxidation peak): 0.467 V
- Iox (μA) ([1]; 2nd oxidation peak): 44.99 μA
- Ered (V) ([1]; 2nd reduction peak): 0.070 V
- Ired (μA) ([1]; 2nd reduction peak): −1.49 μA
- Ered (V) ([1]; 3rd reduction peak): 0.401 V
- Ired (μA) ([1]; 3rd reduction peak): −5.91 μA
- Iox (μA) ([2]; compound + DPPH, 30 min): 43.4 μA
- Ered (V) ([2]; compound + DPPH, 30 min, 1st Ered): 0.302 V
- Ired (μA) ([2]; compound + DPPH, 30 min, 1st Ired): −1.09 μA
- Eox (V) [2, 5]: 0.391 V
- Ered (V) ([2]; compound + DPPH, 30 min, 2nd Ered column): 0.425 V
- Ired (μA) ([2]; compound + DPPH, 30 min, 2nd Ired): −1.23 μA
- Iox (μA) ([2]; compound alone): 47.3 μA
- Eox (V) ([2]; compound alone, 2nd Eox): 0.391 V
- Ered (V) [2, 8]: 0.239 V
- Ired (μA) ([2]; compound alone, 2nd Ired): −7.045 μA
- Chelation Capacity (%), ferrous ions (Fe^2+ chelation assay; 50 µg/mL): 0.07%
- Chelation Capacity (%), ferrous ions (Fe^2+ chelation assay; 100 µg/mL): 4.84%
- Chelation Capacity (%), ferrous ions (Fe^2+ chelation assay; 150 µg/mL): 13.39%
- Chelation Capacity (%), ferrous ions (Fe^2+ chelation assay; 200 µg/mL): 22.27%
- % of DPPH˙ Scavenged ([3]; 1 µg/mL): 10.60%
- % of DPPH˙ Scavenged ([3]; 1.5 µg/mL): 13.62%
- % of DPPH˙ Scavenged ([3]; 2 µg/mL): 17.23%
- % of DPPH˙ Scavenged ([3]; 3 µg/mL): 23.89%
- % of DPPH˙ Scavenged ([3]; 5 µg/mL): 41.22%
- IC50 [3]: 6.23 µg/mL
- % of NO˙ Scavenged [4]: 28.35%

Compound: Br.C/C(=N\Nc1nc(-c2ccc(O)c(C(N)=O)c2)cs1)c1ccc(O)cc1O [Compound 7a, (E)-1-(4-(3-carbamoyl-4-hydroxyphenyl)thiazol-2-yl)-2-(1-(2,4-dihydroxyphenyl)ethylidene)hydrazin-1-ium bromide]
- Eox (V) ([1]; 1st oxidation peak): 0.269 V
- Iox (μA) ([1]; 1st oxidation peak): 14.75 μA
- Eox (V) ([1]; 2nd oxidation peak): 0.374 V
- Iox (μA) ([1]; 2nd oxidation peak): 2.06 μA
- Ered (V) ([1]; 2nd reduction peak): 0.205 V
- Ired (μA) ([1]; 2nd reduction peak): −4.65 μA
- Eox (V) ([1]; 3rd oxidation peak): 0.561 V
- Iox (μA) ([1]; 3rd oxidation peak): 2.69 μA
- Iox (μA) ([2]; compound + DPPH, 30 min): 9.24 μA
- Eox (V) [2, 5]: 0.405 V
- Eox (V) [2, 6]: 0.205 V
- Iox (μA) [2, 7]: 3.21 μA
- Ered (V) [2, 8]: 0.217 V
- Ired (μA) ([2]; compound alone, 2nd Ired): −5.26 μA
- Eox (V) ([2]; compound alone, 3rd Eox column): 0.493 V
- Iox (μA) ([2]; compound alone, 3rd Iox column): 3.95 μA
- Chelation Capacity (%), ferrous ions (Fe^2+ chelation assay; 50 µg/mL): 0.07%
- Chelation Capacity (%), ferrous ions (Fe^2+ chelation assay; 100 µg/mL): 1.73%
- Chelation Capacity (%), ferrous ions (Fe^2+ chelation assay; 150 µg/mL): 2.29%
- Chelation Capacity (%), ferrous ions (Fe^2+ chelation assay; 200 µg/mL): 3.88%
- % of DPPH˙ Scavenged ([3]; 1 µg/mL): 20.01%
- % of DPPH˙ Scavenged ([3]; 1.5 µg/mL): 22.10%
- % of DPPH˙ Scavenged ([3]; 2 µg/mL): 26.75%
- % of DPPH˙ Scavenged ([3]; 3 µg/mL): 32.43%
- % of DPPH˙ Scavenged ([3]; 5 µg/mL): 49.27%
- IC50 [3]: 5.19 µg/mL
- % of NO˙ Scavenged [4]: 21.44%
